Tested on: HCV
Test: anti-HCV activity assay in cell culture (HCV RNA by one-step quantitative RT-PCR)
Assay type: cell-based
Conditions: Hepatitis C virus, Huh7.5, 96 h, compound at 10 μmol/L; Huh7.5 cells infected with HCV virus particles; cultured 96 hrs; HCV RNA in cells vs virus control group; read-out: percent inhibition (%)
Experimental: The assay results of anti-HCV activity of the compound synthesized according to the present invention in cell culture are shown in Table 1, wherein the molecular weight is calculated by ChemBioDraw 12.0 software from the molecular structure of each compound.
100 μL Huh7.5 cells were seeded in 96-well cell culture plate to 1×10^5/mL density, cultured in an incubator at 37° C. under the condition of 5% CO2 and saturated humidity for 6 hrs. Huh7.5 cells were then infected by viral solution containing HCV virus particles, and solutions of compound of the present invention at a concentration of 10 μmol/L liquid were added respectively, cultured for further 96 hrs, and then total RNA was extracted from the cells. Amount of HCV RNA in cells was determined by one-step quantitative RT-PCR, and compared to RNA levels of the virus control group to calculate the inhibition rate of compounds on HCV.

| SMILES | inhibition at 10 µM [%] |
| --- | --- |
| Cc1ccc(NCc2cc(N3CCNCC3)ccc2C#N)cc1 [Compound 1, 4-(piperazin-1-yl)-2-((p-methylphenylamino)methyl)benzonitrile] | 97 |
| COc1ccc(NCc2cc(N3CCNCC3)ccc2C#N)cc1 [Compound 2, 4-(piperazin-1-yl)-2-(p-methoxyphenylamino)methylbenzonitrile] | 89 |
| Cc1ccc(NCc2cc(N3CCN(C)CC3)ccc2C#N)cc1 [Compound 3, 4-(4-methylpiperazin-1-yl)-2-(p-methylphenylamino)methylbenzonitrile] | 92 |
| CN1CCN(c2ccc(C#N)c(CNc3ccccc3)c2)CC1 [Compound 4, 4-(4-methylpiperazin-1-yl)-2-(phenylamino)methylbenzonitrile] | 82 |
| Cc1ccc(NCc2cc(N3CCNC(C)C3)ccc2C#N)cc1 (stereo not drawn) [Compound 5, 4-(3-methylpiperazin-1-yl)-2-(p-methylphenylamino)methylbenzonitrile] | 88 |
| Cc1ccc(NCc2cc(N3CCCC(N)C3)ccc2C#N)cc1 (stereo not drawn) [Compound 6, 4-(3-aminopiperidin-1-yl)-2-(p-methylphenylamino)methylbenzonitrile] | 68 |
| N#Cc1ccc(N2CCNCC2)cc1CNc1ccccc1 [Compound 7, 4-(piperazin-1-yl)-2-(phenylamino)methylbenzonitrile] | 82 |
| CN1CCN(c2ccc(C#N)c(CNc3ccc(Cl)cc3)c2)CC1 [Compound 8, 4-(4-methylpiperazin-1-yl)-2-(p-chlorophenylamino)methylbenzonitrile] | 91 |
| N#Cc1ccc(N2CCNCC2)cc1CNc1ccc(Cl)cc1 [Compound 9, 4-(piperazin-1-yl)-2-(p-chlorophenylamino)methylbenzonitrile] | 92 |
| COc1ccc(NCc2cc(N3CCN(C)CC3)ccc2C#N)cc1 [Compound 10, 4-(4-methylpiperazin-1-yl)-2-(p-methoxyphenylamino)methylbenzonitrile] | 90 |
| CN1CCN(c2ccc(C#N)c(CNc3ccc(C4CCCCC4)cc3)c2)CC1 [Compound 11, 4-(4-methylpiperazin-1-yl)-2-(p-cyclohexylphenylamino)methylbenzonitrile] | 97 |
| CN1CCN(c2ccc(C#N)c(CNc3ccc(C(C)(C)C)cc3)c2)CC1 [Compound 12, 4-(4-methylpiperazin-1-yl)-2-(p-tert-butylphenylamino)methylbenzonitrile] | 92 |
| CCc1ccc(NCc2cc(N3CCN(C)CC3)ccc2C#N)cc1 [Compound 13, 4-(4-methylpiperazin-1-yl)-2-(p-ethylphenylamino)methylbenzonitrile] | 87 |
| Cc1ccc(N(C)Cc2cc(N3CCN(C)CC3)ccc2C#N)cc1 [Compound 14, 4-(4-methylpiperazin-1-yl)-2-((p-methylphenyl)(methyl)amino)methylbenzonitrile] | 97 |
| CCCN(Cc1cc(N2CCN(C)CC2)ccc1C#N)c1ccc(Cl)cc1 [Compound 15, 4-(4-methylpiperazin-1-yl)-2-((p-chlorophenyl)(propyl)amino)methylbenzonitrile] | 88 |
| COc1ccc(N(C)Cc2cc(N3CCN(C)CC3)ccc2C#N)cc1 [Compound 16, 4-(4-methylpiperazin-1-yl)-2-((p-methoxyphenyl)(methyl)amino)methylbenzonitrile] | 84 |
| CCCN(Cc1cc(N2CCN(C)CC2)ccc1C#N)c1ccc(C(C)(C)C)cc1 [Compound 17, 4-(4-methylpiperazin-1-yl)-2-((p-tert-butylphenyl)(propyl)amino)methylbenzonitrile] | 96 |
| CCCN1CCN(c2ccc(C#N)c(CNc3ccccc3)c2)CC1 [Compound 18, 4-(4-propylpiperazin-1-yl)-2-(phenylamino)methylbenzonitrile] | 75 |
| C=CCN1CCN(c2ccc(C#N)c(CN(C)c3ccc(C(C)(C)C)cc3)c2)CC1 [Compound 19, 4-(4-allylpiperazin-1-yl)-2-((p-tert-butylphenyl)(methyl)amino)methylbenzonitrile] | 86 |

| SMILES | inhibition at 10 µM [%] |
| --- | --- |
| COc1ccc(N(C)Cc2cc(N3CCN(c4ccccc4)CC3)ccc2C#N)cc1 [Compound 20, 4-(4-phenylpiperazin-1-yl)-2-((p-methoxyphenyl)(methyl)amino)methylbenzonitrile] | 70 |
| CC(C)c1ccc(NCc2cc(N3CCN(C)CC3)ccc2C#N)cc1 [Compound 21, 4-(4-methylpiperazin-1-yl)-2-(p-isopropylphenylamino)methylbenzonitrile] | 90 |
| CCCN1CCN(c2ccc(C#N)c(CN(C)c3ccc(Oc4ccccc4)cc3)c2)CC1 [Compound 22, 4-(4-propylpiperazin-1-yl)-2-((p-phenoxyphenyl)(methyl)amino)methylbenzonitrile] | 86 |
| CCCN1CCN(c2ccc(C#N)c(CNc3ccc(Sc4ccccc4)cc3)c2)CC1 [Compound 23, 4-(4-propylpiperazin-1-yl)-2-(p-(phenylthio)phenylamino)methylbenzonitrile] | 78 |
| CN1CCN(c2ccc(C#N)c(CNc3ccc(C4CCCC4)cc3)c2)CC1 [Compound 24, 4-(4-methylpiperazin-1-yl)-2-(p-cyclopentylphenylamino)methylbenzonitrile] | 94 |
| COc1ccc(N(C)Cc2cc(N3CC(C)NC(C)C3)ccc2C#N)cc1 (stereo not drawn) [Compound 25, 4-(3,5-dimethylpiperazin-1-yl)-2-((p-methoxyphenyl)(methyl)amino)methylbenzonitrile] | 75 |
| Cc1ccc(NCc2cc(NCCN3CCCCC3)ccc2C#N)cc1 [Compound 28, 4-((2-(piperidin-1-yl)ethyl)amino)-2-(p-methylphenylamino)methylbenzonitrile] | 65 |
| COc1ccc(NCc2cc(NCN3CCCCC3)ccc2C#N)cc1 [Compound 31, 2-((4-methoxyphenyl)amino)methyl-4-(piperidin-1-ylmethyl)aminobenzonitrile] | 61 |
| CN(C)CNc1ccc(C#N)c(CNc2ccc(C(C)(C)C)cc2)c1 [Compound 32, 2-((4-tert-butylphenyl)amino)methyl-4-((N,N-dimethylamino)methyl)aminobenzonitrile] | 73 |
| CN(C)CN(C)c1ccc(C#N)c(CN(C)c2ccc(C(C)(C)C)cc2)c1 [Compound 33, 2-((4-tert-butylphenyl)(methyl)amino)methyl-4-(((dimethylamino)methyl)(methyl)amino)benzonitrile] | 89 |
| N#Cc1ccc(NCCN2CCCCC2)nc1CNCCCc1ccc(C2CCCC2)cc1 [Compound 34, 2-(((4-cyclopentylphenyl)propylamino)methyl)-6-(2-(piperidin-1-yl)ethyl)amino-3-cyanopyridine] | 76 |
| CN1CCN(c2ccc(C#N)c(CNc3ccc(C4CCCC4)cc3)n2)CC1 [Compound 35, 6-(4-methylpiperazin-1-yl)-2-((4-cyclopentylphenylamino)methyl)-3-cyanopyridine] | 80 |
| COc1ccc(NCc2nc(N3CCN(C)CC3)ccc2C#N)cc1 [Compound 36, 2-((4-methoxyphenyl)amino)methyl-6-(4-methylpiperazin-1-yl)-3-cyanopyridine] | 75 |
| Cc1ccc(NCc2nc(N3CCN(C)CC3)ccc2C#N)cc1 [Compound 37, 2-((4-methylphenyl)amino)methyl-6-(4-methylpiperazin-1-yl)-3-cyanopyridine] | 72 |
| COc1ccc(NCc2nc(N(C)CCN(C)C)ccc2C#N)cc1 [Compound 38, 6-((2-(dimethylamino)ethyl)(methyl)amino)-2-((4-methoxyphenyl)amino)methyl-3-cyanopyridine] | 70 |
| Cc1cccc(NCc2nc(N(C)CCN(C)C)ccc2C#N)c1 [Compound 40, 6-((2-(dimethylamino)ethyl)(methyl)amino)-2-((3-methylphenyl)amino)methyl-3-cyanopyridine] | 84 |
| CCCN1CCN(c2ccc(C#N)c(CN(CC)c3ccc(Sc4ccccc4)cc3)n2)CC1 [Compound 41, 2-((4-(phenylthio)phenyl)(ethyl)amino)methyl-6-(4-propylpiperazin-1-yl)-3-cyanopyridine] | 57 |
| CN1CCN(c2ccc(C#N)c(CNc3ccc(Br)cc3)c2)CC1 [Compound 42, 2-(((4-bromophenyl)amino)methyl)-4-(4-methylpiperazin-1-yl)benzonitrile] | 87 |

Same assay, conditions: compound at 10 μmol/L; Huh7.5 cells infected with HCV virus particles; cultured 96 hrs; HCV RNA in cells vs virus control group

| SMILES | percent inhibition (%) |
| --- | --- |
| Cc1ccc(NCc2cc(NCCCN(C)C)ccc2C#N)cc1 [Compound 26, 4-(N,N-dimethyl-1,3-propanediamin-1-yl)-2-(p-methylphenylamino)methylbenzonitrile] | 79 |
| CN(C)CCCNc1ccc(C#N)c(CNc2ccccc2)c1 [Compound 27, 4-(N,N-dimethyl-1,3-propanediamin-1-yl)-2-(phenylamino)methylbenzonitrile] | 78 |
| CN(C)CCCNc1ccc(C#N)c(CNc2ccc(Cl)cc2)c1 [Compound 29, 4-(N,N-dimethyl-1,3-propanediamin-1-yl)-2-(p-chlorophenylamino)methylbenzonitrile] | 80 |
| COc1ccc(NCc2cc(NCCN(C)C)ccc2C#N)cc1 [Compound 30, 4-(N,N-dimethyl-1,3-ethylenediamin-1-yl)-2-(p-methoxyphenylamino)methylbenzonitrile] | 49 |
| COc1cc(NCc2nc(N(C)CCN(C)C)ccc2C#N)cc(OC)c1 [Compound 39] | 75 |
